Experimental data: patent publication US12115152B2, “Pan-RAF kinase inhibitor and use thereof” (HEFEI INSTITUTES OF PHYSICAL SCIENCE, CHINESE ACADEMY OF …, priority 2019, dated 2024)
“And” between values parts separate entries of the source, which are not always exact repeats. Equal values may be shown once. Read-outs that look alike come from different tables or passages of the source.

Test: Pharmacokinetic parameters in rats
Type: in vivo, SD rats
Conditions: rat
Experimental: In the example, SD rats (180-220 g, male) (purchased from Experimental Animal Center of Anhui Medical University, China) were used. The animals were kept in cages ventilated independently with 6 rats per cage. The feeding was performed at a temperature of 20˜26° C. and a humidity of 35-75%. The light condition was 12 hours of lighting/12 hours of darkness. The corncob bedding was refreshed once a week. The rats were fed with foods and drinking water on an ad libitum basis. The rats were marked with a number on the tails. During the experiment, the breeding and use of animals strictly follow the regulations of Association for Assessment and Accreditation of Laboratory Animal Care International.
Solutions of Compound 16 and Comparative Compound 1 were prepared as follows. 10 mg of the compound to be tested was precisely weighed into a sterile vial, and was dissolved with a small amount of DMSO, and then was made to a constant volume of 5 ml with 5% glucose solution, to give a gavage test solution at a concentration of 2 mg/mL. 0.5 ml of the above gavage test solution at a concentration of 2 mg/mL was precisely taken, and was made to constant volume of 5 ml with 4.5 ml of 5% glucose solution, to give an intravenous injection test solution at a concentration of 0.2 mg/mL. The solution was prepared immediately before being used in the experiment.
6 SD rats were randomly divided into two groups, and the synthesized compounds were administered by gavage and tail vein injection, respectively. About 0.3 mL of blood samples were collected from the retro-orbital venous plexus at 0 h before administration and at 5 min, 15 min, 30 min, 1 h, 1.5 h, 2 h, 4 h, 6 h, 9 h, 12 h, 24 h after administration for the gavage group; and at 0 h before administration and at 2 min, 5 min, 15 min, 30 min, 1 h, 2 h, 4 h, 6 h, 9 h, and 12 h after administration for the tail vein group. Each of the collected blood samples was put in a 1.5 mL centrifuge tube with heparin (Sigma, USA). The sample was centrifuged at 6000 rpm for 3 min to separate the plasma. 100 μL of plasma in the upper layer was placed into a new 1.5 mL centrifuge tube, and stored at −80° C. for determination. 10 mg of a standard for the compound to be tested was precisely weighed into a 10 mL volumetric flask, and was dissolved by adding methanol to make a constant volume and mixed uniformly, to give a 1 mg/mL stock solution. The stock solution was then diluted gradually with methanol to give a series of working solutions at concentrations of 0.01, 0.02, 0.05, 0.1, 0.2, 0.5, 1, 2, 5, 10, 20 μg/mL. The working solutions were placed in a refrigerator at 4° C. for later use. 11 centrifuge tubes were used. 10 μL of the above working solutions was respectively added to each of the centrifuge tubes, and then 90 μL of blank rat plasma was respectively added therein. The mixtures were mixed uniformly, so that the concentration of the compound in the rat plasma was 1, 2, 5, 10, 20, 50, 100, 200, 500, 1000, 2000 ng/mL. Then, 20 μL of a solution of caffeine as the internal standard (200 ng/mL) (National Institutes for Food and Drug Control, China) was added therein, and the resultant mixtures were vortexed for 10 s. Next, 400 μL of methanol was added. The resultant mixtures were vortexed for 10 min, and centrifuged at 16000 rpm for 5 min. Thereafter, 70 μL of the supernatant was placed into the inserted pipe of a sampling bottle. 5 μL of the sample was introduced for a LC-MS/MS analysis. A standard curve of the compound in the rat plasma was obtained by means of a linear regression performed by taking the ratio of the peak area of the sample to that of the internal standard As/Ais as the vertical ordinate, taking the concentration C (μg/mL) as the horizontal ordinate, and taking 1/C^2 was taken as a weighting coefficient.
To 100 μL of the rat plasma to be tested stored at −80° C., 20 μL of a caffeine solution (200 ng/mL) as the internal standard was added. The resultant mixture was vortexed for 10 s. […]

[1] = male, Sprague-Dawley, plasma, iv, 1 mg/kg, intravenous injection 1 mg/kg, average n=3
[2] = male, Sprague-Dawley, plasma, iv, 1 mg/kg, intravenous injection 1 mg/kg, individual rats #1-#3
[3] = intravenous injection 1 mg/kg, average n=3
[4] = intravenous injection 1 mg/kg, individual rats #1-#3, listed as Comparative Compound 1, 1 mg/kg
[5] = oral administration (gavage) 10 mg/kg, average n=3
[6] = oral administration (gavage) 10 mg/kg, individual rats #1-#3, listed as Comparative Compound 1, 10 mg/kg

Cc1ccc(NC(=O)c2cccc(C(F)(F)F)c2)cc1-n1cc(-c2cccnc2)cn1 [compound 1, 3-trifluoromethyl-N-(4-methyl-3-(4-(pyrid-3-yl)-1H-pyrazol-1-yl)phenyl)benzamide, reference compound]
AUC(0-inf) (male, SD, plasma, po, 10 mg/kg, oral administration (gavage) 10 mg/kg, average n=3): 1020 ng·h/mL
Tmax (male, SD, plasma, po, 10 mg/kg, oral administration (gavage) 10 mg/kg, average n=3, read-out: Tmax): 30 min
half-life (male, SD, plasma, po, 10 mg/kg, oral administration (gavage) 10 mg/kg, average n=3, read-out: T½ (converted)): 54.4 min
Tmax (male, SD, plasma, po, 10 mg/kg, oral administration (gavage) 10 mg/kg, individual rats #1-#3, read-out: Tmax): 30 min
half-life (male, SD, plasma, po, 10 mg/kg, oral administration (gavage) 10 mg/kg, individual rats #1-#3, read-out: T½ (converted)): 60.2 min
AUC(0-inf) [1]: 92.5 ng·h/mL
clearance [1]: 188 mL/min/kg
AUC0-t (male, Sprague-Dawley, plasma, iv, 1 mg/kg, intravenous injection 1 mg/kg, average n=3, read-out: AUC0-t): 91.6 ng·h/mL
C0 (male, Sprague-Dawley, plasma, iv, 1 mg/kg, intravenous injection 1 mg/kg, average n=3, read-out: C0): 348 ng/mL
Cmax (male, Sprague-Dawley, plasma, iv, 1 mg/kg, intravenous injection 1 mg/kg, average n=3, read-out: Cmax): 262 ng/mL
MRT last (male, Sprague-Dawley, plasma, iv, 1 mg/kg, intravenous injection 1 mg/kg, average n=3, read-out: MRT0-t): 34 min
MRT inf (male, Sprague-Dawley, plasma, iv, 1 mg/kg, intravenous injection 1 mg/kg, average n=3, read-out: MRT0-∞): 37 min
Tmax (male, Sprague-Dawley, plasma, iv, 1 mg/kg, intravenous injection 1 mg/kg, average n=3, read-out: Tmax): 1.98 min
half-life (male, Sprague-Dawley, plasma, iv, 1 mg/kg, intravenous injection 1 mg/kg, average n=3, read-out: T½ (converted)): 42.9 min
Vd (male, Sprague-Dawley, plasma, iv, 1 mg/kg, intravenous injection 1 mg/kg, average n=3, read-out: Vz): 12 L/kg
AUC(0-inf) [2]: 84 ng·h/mL
clearance [2]: 198 mL/min/kg
AUC0-t (male, Sprague-Dawley, plasma, iv, 1 mg/kg, intravenous injection 1 mg/kg, individual rats #1-#3, read-out: AUC0-t): 83.3 ng·h/mL
C0 (male, Sprague-Dawley, plasma, iv, 1 mg/kg, intravenous injection 1 mg/kg, individual rats #1-#3, read-out: C0): 260 ng/mL
Cmax (male, Sprague-Dawley, plasma, iv, 1 mg/kg, intravenous injection 1 mg/kg, individual rats #1-#3, read-out: Cmax): 200 ng/mL
MRT last (male, Sprague-Dawley, plasma, iv, 1 mg/kg, intravenous injection 1 mg/kg, individual rats #1-#3, read-out: MRT0-t): 36.3 min
MRT inf (male, Sprague-Dawley, plasma, iv, 1 mg/kg, intravenous injection 1 mg/kg, individual rats #1-#3, read-out: MRT0-∞): 38.5 min
Tmax (male, Sprague-Dawley, plasma, iv, 1 mg/kg, intravenous injection 1 mg/kg, individual rats #1-#3, read-out: Tmax): 1.98 min
half-life (male, Sprague-Dawley, plasma, iv, 1 mg/kg, intravenous injection 1 mg/kg, individual rats #1-#3, read-out: T½ (converted)): 38.8 min
bioavailability (male, Sprague-Dawley, plasma, oral, 10 mg/kg, oral administration (gavage) 10 mg/kg vs intravenous 1 mg/kg, average n=3, read-out: F (oral bioavailability)): 111%
AUC0-t (male, Sprague-Dawley, plasma, po, 10 mg/kg, oral administration (gavage) 10 mg/kg, average n=3, read-out: AUC0-t): 1010 ng·h/mL
Cmax (male, Sprague-Dawley, plasma, po, 10 mg/kg, oral administration (gavage) 10 mg/kg, average n=3, read-out: Cmax): 576 ng/mL
MRT last (male, Sprague-Dawley, plasma, po, 10 mg/kg, oral administration (gavage) 10 mg/kg, average n=3, read-out: MRT0-t): 93.7 min
MRT inf (male, Sprague-Dawley, plasma, po, 10 mg/kg, oral administration (gavage) 10 mg/kg, average n=3, read-out: MRT0-∞): 98.5 min
MRT last (male, Sprague-Dawley, plasma, po, 10 mg/kg, oral administration (gavage) 10 mg/kg, individual rats #1-#3, read-out: MRT0-t): 109 min
MRT inf (male, Sprague-Dawley, plasma, po, 10 mg/kg, oral administration (gavage) 10 mg/kg, individual rats #1-#3, read-out: MRT0-∞): 115 min
AUMC0-t [3]: 53.50 hr*hr*ng/ml
AUMC0-∞ [3]: 58.31 hr*hr*ng/ml
AUC0-t [4]: 71.86 ng·h/mL and 119.59 ng·h/mL
AUC0-∞ [4]: 73.08 ng·h/mL and 120.51 ng·h/mL
AUMC0-t [4]: 50.39 hr*hr*ng/ml and 31.52 hr*hr*ng/ml and 78.58 hr*hr*ng/ml
AUMC0-∞ [4]: 53.89 hr*hr*ng/ml and 37.99 hr*hr*ng/ml and 83.06 hr*hr*ng/ml
C0 [4]: 402.4 ng/mL and 380.8 ng/mL
Cl [4]: 228.07 mL/min/kg and 138.3 mL/min/kg
Cmax [4]: 285.0 ng/mL and 300.0 ng/mL
MRT0-t [4]: 26.3 min and 39.4 min
MRT0-∞ [4]: 31.2 min and 41.3 min
T½ [4]: 54.4 min and 35.5 min
Vz [4]: 11.101 L/kg and 17.886 L/kg and 7.085 L/kg
F (oral bioavailability) (oral administration (gavage) 10 mg/kg vs intravenous 1 mg/kg, individual rats #1-#3, listed as Comparative Compound 1): 31.2% and 133.6% and 167.2%
AUMC0-t [5]: 1474 hr*hr*ng/ml
AUMC0-∞ [5]: 1566 hr*hr*ng/ml
Cl [5]: 273.12 mL/min/kg
Vz [5]: 22.672 L/kg
AUC0-t [6]: 285.6 ng·h/mL and 1217 ng·h/mL and 1532 ng·h/mL
AUC0-∞ [6]: 289.0 ng·h/mL and 1236 ng·h/mL and 1547 ng·h/mL
AUMC0-t [6]: 518.7 hr*hr*ng/ml and 1889 hr*hr*ng/ml and 2013 hr*hr*ng/ml
AUMC0-∞ [6]: 554.4 hr*hr*ng/ml and 2023 hr*hr*ng/ml and 2121 hr*hr*ng/ml
Cl [6]: 576.77 mL/min/kg and 134.8 mL/min/kg and 107.8 mL/min/kg
Cmax [6]: 138 ng/mL and 579 ng/mL and 1010 ng/mL
MRT0-t [6]: 93.12 min and 78.84 min
MRT0-∞ [6]: 98.22 min and 82.26 min
T½ [6]: 49.3 min and 53.6 min
Vz [6]: 50.104 L/kg and 9.579 L/kg and 8.334 L/kg
